# Results as given in paper PMC11892739, “Site-specific molecular glues for the 14-3-3/Tau pS214 protein–protein interaction via reversible covalent imine tethering” (RSC Medicinal Chemistry, 2025).
# Biological target: T1, 14-3-3γ/Tau pS324 complex (Homo sapiens, UniProt P61981)
# T1 construct: made in house; host or cells: NiCo21 (DE3) E. coli
# Assay: Differential scanning fluorimetry of 14-3-3γ with Tau pS324 peptide and compounds
# Assay type: binding
# Conditions: compound 30 equiv., Tau pS324 10 equiv.
# Method: Fig. 5 a Phospho-site selective 14-3-3/Tau PPI stabilization. b SF250μM of selected compounds for stabilization of the 14-3-3γ complex with Tau pS214 and Tau pS324 peptides based on the internal DMSO reference. Mean of two separately performed experiments (see ESI ^† Fig. S9 for the corresponding binding curves). c Differential scanning fluorimetry assay results. Identified melting temperatures (Tm) of 14-3-3γ in the presence of the Tau pS214 or pS324 peptide and compounds 1 and 18. […]
# chromatography (HisTrap high performance cartridges, Cytiva). […] Dialyzed protein was concentrated to ∼40 mg/mL, analyzed by Q -Tof LC/MS, and aliquots were flash -frozen for storage at −80 °C. […]
# DSF was performed using 40 µl samples containing 2.5 µM 14 -3-3ζ, 25 µM Tau peptide (Tau pS2, Tau pS214 or Tau pS324), […] (1% DMSO) and 5x ProteoOrange (Lumiprobe, 5000x stock in DMSO) in 10 mM HEPES, 150 mM NaCl, 50 µM TCEP (pH 7.4). […] Fluorescence intensity was determined using excitation ( λem=525/20 nm) and emission ( λex=570/20 nm) filters.
# Based on these melting curves, the negative derivative melting curve is obtained from which the melting temperature Tm was determined. All described melting temperatures are based on two or three independent experiments, from which the average and standard deviations were determined. […]
# T1 sequence (P61981 whole entry, other chains not shown): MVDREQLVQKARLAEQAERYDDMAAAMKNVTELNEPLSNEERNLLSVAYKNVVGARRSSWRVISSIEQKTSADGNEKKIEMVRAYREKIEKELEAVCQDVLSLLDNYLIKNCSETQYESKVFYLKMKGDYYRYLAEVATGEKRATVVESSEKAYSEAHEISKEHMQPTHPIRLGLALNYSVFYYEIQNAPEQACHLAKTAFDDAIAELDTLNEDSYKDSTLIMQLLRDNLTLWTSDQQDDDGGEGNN
row,"increase in 14-3-3γ melting temperature on addition of compound, Tau pS324 complex [°C]",Structure (SMILES)
1,~0.2,CCc1ccc(-c2nccn2-c2ccc(C=O)c(Br)c2)cc1 [Compound 18]
2,~0.6,O=Cc1ccc(-n2ccnc2-c2ccccc2)cc1Br [Compound 1]
